Measurements as given in ChEMBL document CHEMBL1201862, “PubChem BioAssay data set” (2004).
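Grown in 96-well plates, cells were treated for 48 hours with each compound at five concentrations. Insufficient inhibition: endpoint recorded as highest concentration tested. GI50: concentration for 50% inhibition of growth.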 Active and inactive are the calls of the source. No stated cut-off is given here; in the data, active = GI50 up to about 1.1 µM and inactive = higher.

Columns and labels:
Test in all cases: NCI-60 cell line screen, 48 h
[1] = tested on: CAKI-1
[2] = tested on: HCC 2998
[3] = tested on: HCT-116
[4] = tested on: HOP-62
[5] = tested on: IGROV-1
[6] = tested on: KM12
[7] = tested on: MDA-MB-435
[8] = tested on: MOLT-4
[9] = tested on: NCI-H23
[10] = tested on: NCI/ADR-RES
[11] = tested on: RPMI-8226
[12] = tested on: SF-295
[13] = tested on: SF-539
[14] = tested on: SK-MEL-2
[15] = tested on: SK-OV-3
[16] = tested on: SNB-19
[17] = tested on: T47D
[18] = tested on: TK-10
[19] = tested on: UACC-62
[20] = tested on: UO-31

Structure (SMILES)	GI50 [1]	GI50 [2]	GI50 [3]	GI50 [4]	GI50 [5]	GI50 [6]	GI50 [7]	GI50 [8]	GI50 [9]	GI50 [10]	GI50 [11]	GI50 [12]	GI50 [13]	GI50 [14]	GI50 [15]	GI50 [16]	GI50 [17]	GI50 [18]	GI50 [19]	GI50 [20]
N#CC1=C(N)N(/N=C/c2ccccc2)C(c2ccccc2)C1(C#N)C#N (stereo not given)	4.61 µM (inactive)	19.6 µM (inactive)	2.81 µM (inactive)	16.8 µM (inactive)	13.7 µM (inactive)	22.8 µM (inactive)	18.2 µM (inactive)	2.23 µM (inactive)	17.9 µM (inactive)	21.6 µM (inactive)	4.94 µM (inactive)	17.1 µM (inactive)	16.5 µM (inactive)	17.2 µM (inactive)	12.6 µM (inactive)	23.1 µM (inactive)	6.87 µM (inactive)	6.3 µM (inactive)	13.5 µM (inactive)	15.7 µM (inactive)
COc1c(C)c(C/C=C(\C)CCCCO[Si](c2ccccc2)(c2ccccc2)C(C)(C)C)c(OC)c(OC)c1OC	1.84 µM (inactive)	41.8 µM (inactive)	35.5 µM (inactive)	25.1 µM (inactive)	24.9 µM (inactive)	14.8 µM (inactive)	> 46.5 µM (inactive)	> 46.5 µM (inactive)	19.6 µM (inactive)	27 µM (inactive)	39.9 µM (inactive)	> 46.5 µM (inactive)	> 46.5 µM (inactive)	> 100 µM (inactive)	> 46.5 µM (inactive)	> 46.5 µM (inactive)	> 83.9 µM (inactive)	> 31.6 µM (inactive)	> 46.5 µM (inactive)	9.27 µM (inactive)
CC1(C)CCC(C)(C)c2cc(NC(=O)c3ccc(C(=O)O)cc3)ccc21 [TAMIBAROTENE]	47.6 µM (inactive)	27.2 µM (inactive)	18.7 µM (inactive)	23.6 µM (inactive)	34.8 µM (inactive)	20.7 µM (inactive)	25.9 µM (inactive)	30.7 µM (inactive)	23.2 µM (inactive)	31.9 µM (inactive)	20.4 µM (inactive)	22.6 µM (inactive)	17.7 µM (inactive)	25.6 µM (inactive)	28 µM (inactive)	32.8 µM (inactive)	33.7 µM (inactive)	25.1 µM (inactive)	16.5 µM (inactive)	17.2 µM (inactive)
CN1c2ccccc2C2c3c(O)ccc(O)c3C=C([N+](=O)[O-])C21 (stereo not given)	2.13 µM (inactive)	0.716 µM (active)	0.205 µM (active)	2.11 µM (inactive)	0.492 µM (active)	0.39 µM (active)	0.199 µM (active)	0.424 µM (active)	1.69 µM (inactive)	1.04 µM (active)	1.11 µM (active)	2.53 µM (inactive)	1.44 µM (inactive)	1.98 µM (inactive)	3.72 µM (inactive)	0.619 µM (active)	0.324 µM (active)	11.2 µM (inactive)	0.957 µM (active)	0.521 µM (active)
COC(=O)C1=C(O)C(C(=O)OC)[C@]2(O)[C@H](C(=O)OC)[C@H]1C[C@@H](c1ccc(Cl)cc1Cl)[C@H]2C(=O)OC (stereo not given in full)	9.68 µM (inactive)	10.1 µM (inactive)	6.3 µM (inactive)	5.5 µM (inactive)	6.3 µM (inactive)	12.3 µM (inactive)	4.09 µM (inactive)	2.48 µM (inactive)	4.34 µM (inactive)	3.83 µM (inactive)	1.75 µM (inactive)	7.46 µM (inactive)	2.84 µM (inactive)	4.7 µM (inactive)	13.2 µM (inactive)	6.98 µM (inactive)	4.83 µM (inactive)	12.6 µM (inactive)	9.46 µM (inactive)	8.97 µM (inactive)
